We go through six compounds from article PMC3480348, “Structure and Activity Analysis of Inauhzin Analogs as Novel Antitumor Compounds That Induce p53 and Inhibit Cell Growth” (PLoS ONE, 2012).

Values joined by “and” are separate entries in the source; they are usually repeats but may differ in a detail not shown here. Identical values can stand only once. “Also recorded” adds a separate entry of the source. Like-named read-outs stand apart in the source and are kept apart here.

The subject of data set [1] is p53 level in H460 and HCT116^+/+ cells. The data set is described as follows: p53 induction by immunoblotting (IB), statement does not separate the cell lines. It is filed as cell-based, human. The conditions noted are these: 18 hrs, 0.5, 2, 10 µM. The text has this: (A–B) Initial Inauhzin analogs were purchased and tested the activity on H460 and HCT116^+/+ by immunoblotting (IB). […]
A general note: A western blot detects proteins with antibodies after separation by electrophoresis.

The subject of data set [2] is p53 level in HCT116^+/+ cells. Nature of the data set: p53 induction by immunoblotting (IB) in HCT116^+/+ cells. The data set is classed as cell-based, human. The conditions noted are these: for p53 induction in HCT116^+/+ cells: 2 µM, 18 hrs, IB normalized to GAPDH, compared to 2 µM INZ. The procedure:
(§1) EC90 values were calculated from the EC50 and Hill slope by a web-based calculator: http://www.graphpad.com/quickcalcs/Ecanything1.cfm.

The subject of the next data set is p53 level in H460 cells. The data set is described as follows: p53 induction by immunoblotting (IB) in H460 cells. It is filed as cell-based, human. The conditions noted are these: for p53 induction in H460 cells: 2 µM, 18 hrs, IB normalized to GAPDH, compared to 2 µM INZ.
Data set [3] deals with H460 cells. The data set is described as follows: 3-day WST-8 cell growth inhibition assay, H460. It is filed as cell-based, human. The conditions noted are these: for EC90: read-out: EC90, cell growth inhibition, H460 p53 wild type. The procedure:
as §1

In another data set the test system is HCT116^+/+ cells. Nature of the data set: 3-day WST-8 cell growth inhibition assay, HCT116^+/+. It is filed as cell-based, human. The conditions noted are these: for EC90: read-out: EC90, cell growth inhibition, HCT116^+/+ p53 wild type; for EC50: HCT-116, 72 h WST-8, average of triplicates, highest concentration 50 µM, read-out: EC50, cell growth inhibition, HCT116^+/+ p53 wild type. The procedure:
as §1
In general terms: Formazan colour is commonly taken as a measure of viable cells.

Data set [4] concerns HCT116^−/− cells. The data set is described as follows: 3-day WST-8 cell growth inhibition assay, HCT116^−/− (p53 null). The conditions noted are these: Homo sapiens, HCT-116, calculated from EC50 and Hill slope. The data set is classed as cell-based. The procedure: as §1
In the next data set the test system is H1299 cells. Nature of the data set: 3-day WST-8 cell growth inhibition assay, H1299 (p53 null). It is filed as cell-based, human. The conditions noted are these: for EC90 / EC50: Homo sapiens; for EC90: NCI-H1299, calculated from EC50 and Hill slope; for EC50: NCI-H1299, 72 h WST-8, average of triplicates, highest concentration 100 µM; for effect on p53-null H1299 cells compared with p53-containing cells: in vitro cytotoxicity. How it is done:
as §1

Data set [5] deals with HCT116^−/− cells. The data set is described as follows: 3-day WST-8 cell growth inhibition assay, HCT116^−/− (p53 null). It is filed as cell-based, human. The conditions noted are these: for EC50: Homo sapiens, HCT-116, 72 h WST-8, average of triplicates, highest concentration 100 µM; for effect on p53-null HCT116^−/− cells compared with p53-containing cells: in vitro cytotoxicity.

Data set [6] has as its system H460 cells. Nature of the data set: 3-day WST-8 cell growth inhibition assay, H460. It is filed as cell-based, human. The conditions noted are these: for EC50: Homo sapiens, NCI-H460, 72 h WST-8, average of triplicates, highest concentration 50 µM, read-out: EC50, cell growth inhibition, H460 p53 wild type.
The subject of a further data set is WI-38 cells. Nature of the data set: WST-8 cytotoxicity assay on normal fibroblasts WI-38. The data set is classed as cell-based, human. The procedure: as §1
Setting [7] is: Homo sapiens, NCI-H460, calculated from EC50 and Hill slope (GraphPad web calculator).
[8] abbreviates: Homo sapiens, HCT-116, calculated from EC50 and Hill slope.

For `CCC(Sc1nnc2c(n1)[nH]c1ccccc12)C(=O)N1c2ccccc2Sc2ccc(Cl)cc21` (stereo not drawn) [Compound 6, 2-((5H-[1,2,4]triazino[5,6-b]indol-3-yl)thio)-1-(2-chloro-10H-phenothiazin-10-yl)butan-1-one], the “p53 induction / activation by synthetic analogs” value in [1] is on record as “remained active in p53 induction”. Besides, the “p53 induction in HCT116^+/+ cells” value in data set [2] is less than 50%. Besides, in the data set with p53 level in H460 cells, the “p53 induction in H460 cells” value is on record as less than 50%.

Consider `CCC(Sc1nnc2c(n1)[nH]c1ccccc12)C(=O)N1c2ccccc2Sc2ccc(OC)cc21` (stereo not drawn) [Compound 7, 2-((5H-[1,2,4]triazino[5,6-b]indol-3-yl)thio)-1-(2-methoxy-10H-phenothiazin-10-yl)butan-1-one], for which, in data set [1], the “p53 induction / activation by synthetic analogs” value was “remained active in p53 induction”. For the same compound, the “p53 induction in HCT116^+/+ cells” value in data set [2] is given as less than 50%. For the same compound, in the data set on p53 level in H460 cells, the “p53 induction in H460 cells” value was less than 50%.

Consider `CCC(Sc1nnc2c(n1)[nH]c1cc(C)ccc12)C(=O)N1c2ccccc2Sc2ccccc21` (stereo not drawn) [Compound 19, 2-((7-methyl-5H-[1,2,4]triazino[5,6-b]indol-3-yl)thio)-1-(10H-phenothiazin-10-yl)butan-1-one], for which the “p53 induction / activation by synthetic analogs” value in [1] is “significant effect on p53 induction compared to INZ at 0.5 µM”. Moreover, the EC90 with H460 cells [3] (setting [7]) is 26.5 µM; with H460 cells [3] (calculated from EC50 and Hill slope (GraphPad web calculator)) it was 20 to 30 µM; with HCT116^+/+ cells (setting [8]), 29.7 µM; with HCT116^+/+ cells (calculated from EC50 and Hill slope), 20 to 30 µM; with HCT116^−/− cells [4], more than 1000 µM; in the data set with H1299 cells, 173 µM. For the same compound, the “EC90 fold lower than that for INZ, H460” value in the data set on H460 cells [3] (statement covers H460 and HCT116^+/+ together) turned out to be 1.5 fold. The EC50 with HCT116^+/+ cells (Homo sapiens) was determined as 2.2 ± 0.2 µM; in the data set on H1299 cells it was 40.2 ± 7.4 µM; with HCT116^−/− cells [5], 44.2 ± 10.3 µM; in the data set with H460 cells [6], 6 ± 0.6 µM. Also, in the data set on H1299 cells, the “effect on p53-null H1299 cells compared with p53-containing cells” value is on record as “much less effective”. Besides, the “effect on p53-null HCT116^−/− cells compared with p53-containing cells” value with HCT116^−/− cells [5] is reported as “much less effective”.

Regarding `CCC(Sc1nnc2c3ccccc3n(C(=O)CCCCC3CC4NC(=O)NC4S3)c2n1)C(=O)N1c2ccccc2Sc2ccccc21` (stereo not drawn) [Compound 20, 5-(5-oxo-5-(3-((1-oxo-1-(10H-phenothiazin-10-yl)butan-2-yl)thio)-5H-[1,2,4]triazino[5,6-b]indol-5-yl)pentyl)tetrahydro-1H-thieno[2,3-d]imidazole-2(5H)-one], the values for the EC90 with H460 cells [3] (setting [7]) and in the data set on HCT116^+/+ cells (setting [8]) were 7.5 µM and 18.3 µM, respectively. The “p53 induction / activation in HCT116^+/+ cells” value in data set [2] (IB, 18 hrs, 0.5, 2, 10 µM, p53 acetylation (lys382), p53 level, MDM2) is recorded as “as effective as INZ”. The EC50 with HCT116^+/+ cells (Homo sapiens) was determined as 2.5 ± 0.6 µM; in the data set with H460 cells [6], 2.9 ± 0.2 µM. Also, the “p53 induction / activation in H460 cells” value in the data set with p53 level in H460 cells (IB, 18 hrs, 0.5, 2, 10 µM) is on record as “as effective as INZ”.

Regarding `CCC(Sc1nnc2c3ccccc3n(CCO)c2n1)C(=O)N1c2ccccc2Cc2ccccc21` (stereo not drawn) [Compound 37, 1-(acridin-10(9H)-yl)-2-((5-(2-hydroxyethyl)-5H-[1,2,4]triazino[5,6-b]indol-3-yl)thio)butan-1-one], the “p53 induction / activation by synthetic analogs” value in data set [1] is reported as “much better potency than INZ; also recorded: more potent in p53 activation than their parental compound INZ”. Also, the EC90 was 3.6 µM with H460 cells [3] (setting [7]), 5 µM in the data set on HCT116^+/+ cells (setting [8]), 91.7 µM in the data set with HCT116^−/− cells [4] and 58.9 µM in the data set on H1299 cells. Besides, the EC50 with WI-38 cells (Homo sapiens, WI-38, highest concentration tested 50 µM, n.d. = not be able to be determined, read-out: EC50, normal cells WI-38 p53 wild type) is more than 50 µM; in the data set with HCT116^+/+ cells (Homo sapiens) it was 0.5 µM; with H1299 cells, 11.2 µM; in the data set on HCT116^−/− cells [5] it was 12.8 ± 1.7 µM; in the data set on H460 cells [6] it was 0.7 µM. For the same compound, the “toxicity to normal human WI-38 cells” value with WI-38 cells (normal human fibroblasts, p53-containing) is given as “no toxicity”. The “fold higher potency than INZ in growth inhibition of HCT116^+/+ cells” value in the data set with HCT116^+/+ cells (EC50 compared with INZ) is 5 fold and 5- to 10 fold. Moreover, the “effect on p53-null H1299 cells compared with p53-containing cells” value in the data set with H1299 cells is “much less effect; also recorded: much less effective”. In addition, the “EC50 on H1299 fold higher than on H460 cells” value with H1299 cells (p53-null H1299 vs p53-containing H460) was 3–15 fold. For the same compound, the “effect on p53-null HCT116^−/− cells compared with p53-containing cells” value with HCT116^−/− cells [5] is reported as “much less effect; also recorded: much less effective”. For the same compound, the “fold higher potency than INZ in growth inhibition of H460 cells” value in the data set with H460 cells [6] (EC50 compared with INZ) was 10 fold and 5- to 10 fold.

As to `CCC(Sc1nnc2c(n1)[nH]c1ccccc12)C(=O)N1c2ccccc2Sc2ccccc21` (stereo not drawn) [INZ, 2-((5H-[1,2,4]triazino[5,6-b]indole-3yl)thio)-1-(10H-phenothiazin-10-yl)butan-1-one], the EC90 was 39.9 µM with H460 cells [3] (setting [7]), 30.5 µM in the data set with HCT116^+/+ cells (setting [8]), 213 µM in the data set on HCT116^−/− cells [4] and 217 µM in the data set with H1299 cells. Also, the EC50 in the data set with HCT116^+/+ cells (Homo sapiens) stood at 2.7 ± 0.3 µM; in the data set with H1299 cells it was 11.6 ± 3.4 µM; in the data set on HCT116^−/− cells [5] it was 13.3 ± 2.4 µM; in the data set on H460 cells [6] it was 7.7 ± 1.1 µM. In the data set with H1299 cells (H1299, HCT116^−/− vs H460, HCT116^+/+), the “EC90 fold greater in p53-null cells than in p53-containing cell lines” value is 5–7 fold.
